Source: US6960614B2, “Oxygenated esters of 4-lodo phenylamino benzhydroxamic acids” (Warner-Lambert Company, priority 2000, dated 2005)

Key:
MEK = assay: Cellular Assay for Measuring MEK Inhibition (inhibition of ERK phosphorylation in C26 cells, Western blot); format: cell-based, murine; settings: inhibition of ERK phosphorylation in murine colon 26 (C26) carcinoma cells; determined graphically from dose response curve
Procedure, shortened: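 Read-out is phospho-ERK1/2 by Western blot, normalized against total ERK1/2 after stripping and re-probing. Murine C26 colon carcinoma cells in exponential growth were exposed to a range of compound concentrations at 37° C before lysis.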

O=C(NOCCO)c1ccc(F)c(F)c1Nc1ccc(Br)cc1F [Example 22, 2-(4-Bromo-2-fluoro-phenylamino)-3,4-difluoro-N-(2-hydroxy-ethoxy)-benzamide]
melting point: 146.1 to 146.4 °C
IC50 (MEK): 7.7 nM

O=C(NOCCO)c1cc(F)c(F)cc1Nc1ccc(Br)cc1F [Example 23, 2-(4-Bromo-2-fluoro-phenylamino)-4,5-difluoro-N-(2-hydroxy-ethoxy)-benzamide]
melting point: 190.8 to 192.5 °C
IC50 (MEK): 32 nM

O=C(NOCCO)c1ccc(F)c(F)c1Nc1ccc(Cl)cc1F [Example 24, 2-(4-Chloro-2-fluoro-phenylamino)-3,4-difluoro-N-(2-hydroxy-ethoxy)-benzamide]
melting point: 142.1 to 142.5 °C
IC50 (MEK): 26 nM

O=C(NOCCO)c1ccc(F)c(F)c1Nc1ccccc1F [Example 25, 3,4-Difluoro-2-(2-fluoro-phenylamino)-N-(2-hydroxy-ethoxy)-benzamide]
melting point: 129.6 to 130.4 °C
IC50 (MEK): 52 nM

O=C(NOCCO)c1cc(Cl)c(F)c(F)c1Nc1ccc(F)cc1F [Example 26, 5-Chloro-2-(2,4-difluoro-phenylamino)-3,4-difluoro-N-(2-hydroxy-ethoxy)-benzamide]
melting point: 161.6 to 162.4 °C
IC50 (MEK): 240 nM

O=C(NOCCO)c1ccc(F)c(F)c1Nc1ccc(F)cc1F [Example 27, 2-(2,4-Difluoro-phenylamino)-3,4-difluoro-N-(2-hydroxy-ethoxy)-benzamide]
melting point: 141.1 to 141.6 °C
IC50 (MEK): 120 nM

Cc1cc(I)ccc1Nc1cc(F)ccc1C(=O)NOCCCO [Example 28, 4-Fluoro-N-(3-hydroxy-propoxy)-2-(4-iodo-2-methyl-phenylamino)-benzamide]
melting point: 120.8 to 122.4 °C
IC50 (MEK): 120 nM

Cc1cc(I)ccc1Nc1c(C(=O)NOCCCO)cc(Cl)c(F)c1F [Example 29, 5-Chloro-3,4-difluoro-N-(3-hydroxy-propoxy)-2-(4-iodo-2-methyl-phenylamino)-benzamide]
melting point: 155.2 to 156.6 °C
IC50 (MEK): 47 nM

O=C(NOCCCO)c1ccc(F)cc1Nc1ccc(I)cc1Cl [Example 30]
melting point: 158.8 to 160.8 °C
IC50 (MEK): 130 nM

O=C(NOCCCCO)c1ccc(F)c(F)c1Nc1ccc(I)cc1F [Example 33]
melting point: 131.4 to 131.9 °C
IC50 (MEK): 5 nM

Cc1cc(I)ccc1Nc1c(C(=O)NOCC(O)CO)cc(Cl)c(F)c1F (centres unmarked) [Example 35, 5-Chloro-N-(2,3-dihydroxy-propoxy)-3,4-difluoro-2-(4-iodo-2-methyl-phenylamino)-benzamide]
melting point: 67 to 69 °C
IC50 (MEK): 6 nM

Cc1cc(I)ccc1Nc1c(C(=O)NOCCC(O)CO)cc(Cl)c(F)c1F (centres unmarked) [Example 36, 5-Chloro-N-(3,4-dihydroxy-butoxy)-3,4-difluoro-2-(4-iodo-2-methyl-phenylamino)-benzamide]
melting point: 135 to 138 °C
IC50 (MEK): 53 nM

O=C(NOCCC(O)CO)c1cc(Cl)c(F)c(F)c1Nc1ccc(I)cc1Cl (centres unmarked) [Example 37, 5-Chloro-2-(2-chloro-4-iodo-phenylamino)-N-(3,4-dihydroxy-butoxy)-3,4-difluoro-benzamide]
melting point: 146 to 148 °C
IC50 (MEK): 30 nM

CC1(C)OCC(CONC(=O)c2ccc(F)c(F)c2Nc2ccc(I)cc2F)O1 (centres unmarked) [Example 38, N-(2,2-Dimethyl-[1,3]dioxolan-4-ylmethoxy)-3,4-difluoro-2-(2-fluoro-4-iodo-phenylamino)-benzamide]
melting point: 114 to 115 °C
IC50 (MEK): > 1000 nM

O=C(NOCC(O)CO)c1ccc(F)cc1Nc1ccc(I)cc1F (centres unmarked) [Example 42, N-(2,3-Dihydroxy-propoxy)-4-fluoro-2-(2-fluoro-4-iodo-phenylamino)-benzamide]
melting point: 173 to 175 °C
IC50 (MEK): 2.7 nM

O=C(NOCC(O)CO)c1cc(F)c(F)c(F)c1Nc1ccc(I)cc1F (centres unmarked) [Example 43, N-(2,3-Dihydroxy-propoxy)-3,4,5-trifluoro-2-(2-fluoro-4-iodo-phenylamino)-benzamide]
melting point: 157 to 160 °C
IC50 (MEK): 1.8 nM

O=C(NOCC(O)CO)c1ccc(F)c(F)c1Nc1ccc(Br)cc1F (centres unmarked) [Example 44]
melting point: 110 to 117 °C (dec.)
IC50 (MEK): 3 nM

O=C(NOCC(O)CO)c1ccc(F)c(F)c1Nc1ccc(Cl)cc1F (centres unmarked) [Example 45, 2-(4-Chloro-2-fluoro-phenylamino)-N-(2,3-dihydroxy-propoxy)-3,4-difluoro-benzamide]
melting point: 114 to 114.9 °C
IC50 (MEK): 19 nM

CC1(C)OCC(ONC(=O)c2ccc(F)c(F)c2Nc2ccc(I)cc2F)CO1 [Example 46, N-(2,2-Dimethyl-[1,3]dioxan-5-yloxy)-3,4-difluoro-2-(2-fluoro-4-iodo-phenylamino)-benzamide]
melting point: 154 to 155 °C
IC50 (MEK): 582 nM

O=C(NOC(CO)CO)c1ccc(F)c(F)c1Nc1ccc(I)cc1F [Example 47, 3,4-Difluoro-2-(2-fluoro-4-iodo-phenylamino)-N-(2-hydroxy-1-hydroxymethyl-ethoxy)-benzamide]
melting point: 111 to 114 °C
IC50 (MEK): 1 nM

O=C(NOC(CO)CO)c1cc(Cl)c(F)c(F)c1Nc1ccc(I)cc1F [Example 48, 5-Chloro-3,4-difluoro-2-(2-fluoro-4-iodo-phenylamino)-N-(2-hydroxy-1-hydroxymethyl-ethoxy)-benzamide]
melting point: 173 to 175 °C
IC50 (MEK): 1.6 nM

O=C(NOC[C@H](O)CO)c1cc(Cl)c(F)c(F)c1Nc1ccc(I)cc1Cl [Example 51, 5-Chloro-2-(2-chloro-4-iodo-phenylamino)-N-[(R)-2,3-dihydroxy-propoxy]-3,4-difluoro-benzamide]
melting point: 155 to 156 °C
IC50 (MEK): 3.8 nM

O=C(NOC[C@@H](O)CO)c1cc(Cl)c(F)c(F)c1Nc1ccc(I)cc1Cl [Example 52, 5-Chloro-2-(2-chloro-4-iodo-phenylamino)-N-[(S)-2,3-dihydroxy-propoxy]-3,4-difluoro-benzamide]
melting point: 153 to 154 °C
IC50 (MEK): 7.8 nM

C=COCCONC(=O)c1ccc(F)cc1Nc1ccc(I)cc1F [Example 58, 4-Fluoro-2-(2-fluoro-4-iodo-phenylamino)-N-(2-vinyloxy-ethoxy)-benzamide]
melting point: 103.5 to 104 °C
IC50 (MEK): 60 nM

C=COCCONC(=O)c1cc(Br)c(F)c(F)c1Nc1ccc(I)cc1F [Example 61, 5-Bromo-3,4-difluoro-2-(2-fluoro-4-iodo-phenylamino)-N-(2-vinyloxy-ethoxy)-benzamide]
melting point: 128 to 130 °C
IC50 (MEK): 150 nM

CC(C)(CO)ONC(=O)c1cc(Br)c(F)c(F)c1Nc1ccc(I)cc1Cl [Example 62, 5-Bromo-2-(2-chloro-4-iodo-phenylamino)-3,4-difluoro-N-(2-hydroxy-1,1-dimethyl-ethoxy)-benzamide]
melting point: 179 to 181 °C
IC50 (MEK): 18 nM

Cc1cc(I)ccc1Nc1c(C(=O)NOC(C)(C)CO)ccc(F)c1F [Example 63, 3,4-Difluoro-N-(2-hydroxy-1,1-dimethyl-ethoxy)-2-(4-iodo-2-methyl-phenylamino)-benzamide]
melting point: 175 to 176 °C
IC50 (MEK): 47 nM

CC(C)(O)CONC(=O)c1ccc(F)c(F)c1Nc1ccc(I)cc1Cl [Example 64, 2-(2-Chloro-4-iodo-phenylamino)-3,4-difluoro-N-(2-hydroxy-2-methyl-propoxy)-benzamide]
melting point: 140 to 153 °C
IC50 (MEK): 13 nM

CC(C)(CO)ONC(=O)c1ccc(F)c(F)c1Nc1ccc(I)cc1F [Example 65, 3,4-Difluoro-2-(2-fluoro-4-iodo-phenylamino)-N-(2-hydroxy-1,1-dimethyl-ethoxy)-benzamide]
melting point: 182 to 183 °C
IC50 (MEK): 14 nM

CC(C)(CO)ONC(=O)c1cc(Cl)c(F)c(F)c1Nc1ccc(I)cc1F [Example 66, 5-Chloro-3,4-difluoro-2-(2-fluoro-4-iodo-phenylamino)-N-(2-hydroxy-1,1-dimethyl-ethoxy)-benzamide]
melting point: 178 to 180 °C
IC50 (MEK): 2 nM

CC(C)(O)CONC(=O)c1ccc(F)c(F)c1Nc1ccc(I)cc1F [Example 67, 3,4-Difluoro-2-(2-fluoro-4-iodo-phenylamino)-N-(2-hydroxy-2-methyl-propoxy)-benzamide]
melting point: 156.7 to 156.9 °C
IC50 (MEK): 6 nM

COCC(O)CONC(=O)c1ccc(F)c(F)c1Nc1ccc(I)cc1C (centres unmarked) [Example 68]
melting point: 136.2 to 136.5 °C
IC50 (MEK): 24 nM

COCC(O)CONC(=O)c1cc(Br)c(F)c(F)c1Nc1ccc(I)cc1Cl (centres unmarked) [Example 69, 5-Bromo-2-(2-chloro-4-iodo-phenylamino)-3,4-difluoro-N-(2-hydroxy-3-methoxy-propoxy)-benzamide]
melting point: 139.5 to 140.1 °C
IC50 (MEK): 60 nM

Cc1cc(I)ccc1Nc1c(C(=O)NOCC2(CO)CC2)ccc(F)c1F [Example 70, 3,4-Difluoro-N-(1-hydroxymethyl-cyclopropylmethoxy)-2-(4-iodo-2-methyl-phenylamino)-benzamide]
melting point: 165.4 to 165.6 °C
IC50 (MEK): 200 nM

O=C(NOCC1(CO)CC1)c1cc(Br)c(F)c(F)c1Nc1ccc(I)cc1Cl [Example 71, 5-Bromo-2-(2-chloro-4-iodo-phenylamino)-3,4-difluoro-N-(1-hydroxymethyl-cyclopropylmethoxy)-benzamide]
melting point: 152.6 to 153.9 °C
IC50 (MEK): 120 nM

Cc1cc(I)ccc1Nc1c(C(=O)NOCC(O)C(F)(F)F)ccc(F)c1F (centres unmarked) [Example 72, 3,4-Difluoro-2-(4-iodo-2-methyl-phenylamino)-N-(3,3,3-trifluoro-2-hydroxy-propoxy)-benzamide]
melting point: 175.2 to 175.5 °C
IC50 (MEK): 19 nM

O=C(NOCC(O)C(F)(F)F)c1cc(Br)c(F)c(F)c1Nc1ccc(I)cc1Cl (centres unmarked) [Example 73, 5-Bromo-2-(2-chloro-4-iodo-phenylamino)-3,4-difluoro-N-(3,3,3-trifluoro-2-hydroxy-propoxy)-benzamide]
melting point: 186.9 to 187.3 °C
IC50 (MEK): 80 nM
